Laboratory results as given in patent US12258327B2, “5-membered heteroaryl-containing aminopyridine compounds as EGFR inhibitors” (YUHAN CORPORATION, priority 2021, dated 2025).
Like-named read-outs stand apart in the source and are kept apart here.

Experiments:
EGFR del19/T790M/C797S = EGFR del19/T790M/C797S (Homo sapiens, UniProt P00533, C797S/DEL746-750/T790M); assay: Biochemical EGFR kinase assay (Lance Ultra TR-FRET), triple mutant del19/T790M/C797S
In short: (§1)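 Step 1: compound in kinase buffer, 0.003–10 μM. Step 2: kinase reaction 1 h at room temperature. Step 4: TR-FRET read at 615/665 nm; IC50 calculated.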

EGFR del19/C797S = EGFR del19/C797S (Homo sapiens, UniProt P00533, C797S/DEL746-750); assay: Biochemical EGFR kinase assay (Lance Ultra TR-FRET), double mutant del19/C797S
In short: as §1

EGFR L858R/T790M/C797S = EGFR L858R/T790M/C797S (Homo sapiens, UniProt P00533, C797S/L858R/T790M); assay: Biochemical EGFR kinase assay (Lance Ultra TR-FRET), triple mutant L858R/T790M/C797S
In short: as §1

EGFR wildtype (WT) = EGFR wildtype (WT) (Homo sapiens, UniProt P00533); assay: Biochemical EGFR kinase assay (Lance Ultra TR-FRET), wildtype
In short: as §1

EGFR L858R/C797S = EGFR L858R/C797S (Homo sapiens, UniProt P00533, C797S/L858R); assay: Biochemical EGFR kinase assay (Lance Ultra TR-FRET), double mutant L858R/C797S
In short: as §1

[1] = IC50 del19/T790M/C797S (nM) 100 μM ATP, 100 μM ATP
[2] = Km ATP, read-out: IC50 del19/T790M/C797S (nM) Km ATP
[3] = IC50 del19/C797S (nM) 100 μM ATP, 100 μM ATP
[4] = Km ATP, read-out: IC50 del19/C797S (nM) Km ATP
[5] = IC50 L858R/T790M/C797S (nM) 100 μM ATP, 100 μM ATP
[6] = Km ATP, read-out: IC50 L858R/T790M/C797S (nM) Km ATP
[7] = IC50 WT (nM) 100 μM ATP, 100 μM ATP
[8] = Km ATP, read-out: IC50 WT (nM) Km ATP
[9] = IC50 L858R/C797S (nM) 100 μM ATP, 100 μM ATP
[10] = Km ATP, read-out: IC50 L858R/C797S (nM) Km ATP
[11] = Km ATP, read-out: IC50 del19/T790M/C797S, Km ATP
[12] = Km ATP, read-out: IC50 del19/C797S, Km ATP
[13] = Km ATP, read-out: IC50 L858R/T790M/C797S, Km ATP
[14] = Km ATP, read-out: IC50 WT, Km ATP
[15] = Km ATP, read-out: IC50 L858R/C797S, Km ATP

Chain of EGFR L858R/T790M/C797S (P00533 25-1210 T790M/C797S/L858R): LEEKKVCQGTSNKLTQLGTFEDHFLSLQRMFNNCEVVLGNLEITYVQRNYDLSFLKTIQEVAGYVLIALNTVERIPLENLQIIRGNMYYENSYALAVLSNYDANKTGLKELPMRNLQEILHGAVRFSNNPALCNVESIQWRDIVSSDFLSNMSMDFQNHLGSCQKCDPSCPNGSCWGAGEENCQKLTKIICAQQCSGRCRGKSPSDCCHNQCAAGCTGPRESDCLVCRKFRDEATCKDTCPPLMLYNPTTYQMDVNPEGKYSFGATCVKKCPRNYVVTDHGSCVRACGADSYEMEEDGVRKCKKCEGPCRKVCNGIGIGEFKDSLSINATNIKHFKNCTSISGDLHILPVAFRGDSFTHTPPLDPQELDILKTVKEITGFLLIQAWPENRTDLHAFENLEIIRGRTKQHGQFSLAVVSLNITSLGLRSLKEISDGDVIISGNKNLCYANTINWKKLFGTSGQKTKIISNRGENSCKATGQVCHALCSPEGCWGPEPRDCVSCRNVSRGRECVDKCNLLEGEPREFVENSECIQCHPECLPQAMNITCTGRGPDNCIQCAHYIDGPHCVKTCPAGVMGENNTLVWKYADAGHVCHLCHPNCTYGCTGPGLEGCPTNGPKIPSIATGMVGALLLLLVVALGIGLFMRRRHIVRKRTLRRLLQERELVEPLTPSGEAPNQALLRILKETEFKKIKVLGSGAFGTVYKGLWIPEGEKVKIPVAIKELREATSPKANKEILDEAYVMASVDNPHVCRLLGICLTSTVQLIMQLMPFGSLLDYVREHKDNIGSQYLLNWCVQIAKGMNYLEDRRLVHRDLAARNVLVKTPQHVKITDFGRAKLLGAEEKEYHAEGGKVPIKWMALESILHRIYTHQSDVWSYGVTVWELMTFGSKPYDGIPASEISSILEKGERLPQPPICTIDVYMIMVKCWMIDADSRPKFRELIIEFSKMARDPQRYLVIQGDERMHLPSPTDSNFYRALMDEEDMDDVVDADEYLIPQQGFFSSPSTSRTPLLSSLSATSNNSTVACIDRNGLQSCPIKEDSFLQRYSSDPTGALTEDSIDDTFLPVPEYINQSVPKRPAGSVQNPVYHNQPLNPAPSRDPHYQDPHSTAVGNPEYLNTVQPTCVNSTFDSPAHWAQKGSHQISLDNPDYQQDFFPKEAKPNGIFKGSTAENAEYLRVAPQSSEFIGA
Chain of EGFR del19/C797S (P00533 with tags, fused parts or gaps DEL746-750/C797S): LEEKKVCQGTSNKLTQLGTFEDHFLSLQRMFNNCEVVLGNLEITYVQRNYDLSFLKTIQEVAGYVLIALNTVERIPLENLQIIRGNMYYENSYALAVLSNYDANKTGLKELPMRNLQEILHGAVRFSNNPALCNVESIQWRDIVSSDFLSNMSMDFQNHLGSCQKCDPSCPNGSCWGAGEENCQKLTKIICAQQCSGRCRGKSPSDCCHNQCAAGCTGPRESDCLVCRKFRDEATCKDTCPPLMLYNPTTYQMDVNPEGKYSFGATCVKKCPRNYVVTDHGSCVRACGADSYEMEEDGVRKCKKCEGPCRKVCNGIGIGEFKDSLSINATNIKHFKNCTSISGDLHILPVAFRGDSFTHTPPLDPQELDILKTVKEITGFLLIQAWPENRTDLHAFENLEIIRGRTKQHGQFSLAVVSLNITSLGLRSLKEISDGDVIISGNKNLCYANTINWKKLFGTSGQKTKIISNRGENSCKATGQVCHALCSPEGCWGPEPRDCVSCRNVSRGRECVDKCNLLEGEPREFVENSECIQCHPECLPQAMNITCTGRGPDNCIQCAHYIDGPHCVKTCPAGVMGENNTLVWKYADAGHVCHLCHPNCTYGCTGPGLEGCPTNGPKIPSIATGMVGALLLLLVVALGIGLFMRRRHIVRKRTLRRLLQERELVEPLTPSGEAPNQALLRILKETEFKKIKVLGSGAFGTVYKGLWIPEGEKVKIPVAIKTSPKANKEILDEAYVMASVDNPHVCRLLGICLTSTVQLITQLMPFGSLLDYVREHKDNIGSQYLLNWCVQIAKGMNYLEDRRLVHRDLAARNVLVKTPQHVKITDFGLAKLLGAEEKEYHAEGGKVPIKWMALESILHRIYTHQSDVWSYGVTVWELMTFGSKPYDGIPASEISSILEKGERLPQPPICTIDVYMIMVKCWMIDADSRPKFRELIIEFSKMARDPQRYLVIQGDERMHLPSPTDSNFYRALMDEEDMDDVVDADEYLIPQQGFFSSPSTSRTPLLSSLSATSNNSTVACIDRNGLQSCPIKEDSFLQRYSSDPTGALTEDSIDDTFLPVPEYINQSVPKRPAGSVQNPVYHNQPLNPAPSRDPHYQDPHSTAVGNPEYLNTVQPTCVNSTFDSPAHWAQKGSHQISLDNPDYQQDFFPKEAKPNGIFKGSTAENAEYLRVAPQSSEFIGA
Chain of EGFR L858R/C797S (P00533 25-1210 C797S/L858R): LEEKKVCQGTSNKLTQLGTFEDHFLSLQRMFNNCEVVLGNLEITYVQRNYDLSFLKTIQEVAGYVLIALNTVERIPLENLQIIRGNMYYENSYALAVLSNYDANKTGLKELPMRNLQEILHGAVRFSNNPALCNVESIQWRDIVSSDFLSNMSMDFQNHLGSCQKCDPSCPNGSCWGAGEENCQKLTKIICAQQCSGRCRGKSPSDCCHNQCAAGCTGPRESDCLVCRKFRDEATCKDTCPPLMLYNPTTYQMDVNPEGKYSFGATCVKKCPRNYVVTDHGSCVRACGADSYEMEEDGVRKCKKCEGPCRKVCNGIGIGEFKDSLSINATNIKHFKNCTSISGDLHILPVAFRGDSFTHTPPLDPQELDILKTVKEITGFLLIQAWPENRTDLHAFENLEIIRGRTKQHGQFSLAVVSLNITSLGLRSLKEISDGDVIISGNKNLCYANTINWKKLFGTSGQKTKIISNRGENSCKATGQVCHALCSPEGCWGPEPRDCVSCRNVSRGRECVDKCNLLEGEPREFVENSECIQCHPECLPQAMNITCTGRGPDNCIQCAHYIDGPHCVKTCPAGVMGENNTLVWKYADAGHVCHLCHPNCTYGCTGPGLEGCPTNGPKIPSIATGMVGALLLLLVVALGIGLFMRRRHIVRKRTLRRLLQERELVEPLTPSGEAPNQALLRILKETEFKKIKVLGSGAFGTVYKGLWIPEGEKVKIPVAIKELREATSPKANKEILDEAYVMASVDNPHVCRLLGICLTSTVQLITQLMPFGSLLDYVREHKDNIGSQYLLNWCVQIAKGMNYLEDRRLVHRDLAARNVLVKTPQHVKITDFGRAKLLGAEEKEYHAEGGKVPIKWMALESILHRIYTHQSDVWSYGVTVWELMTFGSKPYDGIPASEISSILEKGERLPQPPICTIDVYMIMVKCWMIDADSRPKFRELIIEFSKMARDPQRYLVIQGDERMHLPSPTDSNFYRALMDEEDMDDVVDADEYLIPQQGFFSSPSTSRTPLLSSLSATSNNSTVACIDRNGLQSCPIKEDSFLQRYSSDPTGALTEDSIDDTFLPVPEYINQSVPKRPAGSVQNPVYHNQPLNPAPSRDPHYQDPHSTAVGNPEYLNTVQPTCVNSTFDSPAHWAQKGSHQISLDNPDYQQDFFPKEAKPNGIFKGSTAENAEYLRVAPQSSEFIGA
Chain of EGFR del19/T790M/C797S (P00533 with tags, fused parts or gaps DEL746-750/T790M/C797S): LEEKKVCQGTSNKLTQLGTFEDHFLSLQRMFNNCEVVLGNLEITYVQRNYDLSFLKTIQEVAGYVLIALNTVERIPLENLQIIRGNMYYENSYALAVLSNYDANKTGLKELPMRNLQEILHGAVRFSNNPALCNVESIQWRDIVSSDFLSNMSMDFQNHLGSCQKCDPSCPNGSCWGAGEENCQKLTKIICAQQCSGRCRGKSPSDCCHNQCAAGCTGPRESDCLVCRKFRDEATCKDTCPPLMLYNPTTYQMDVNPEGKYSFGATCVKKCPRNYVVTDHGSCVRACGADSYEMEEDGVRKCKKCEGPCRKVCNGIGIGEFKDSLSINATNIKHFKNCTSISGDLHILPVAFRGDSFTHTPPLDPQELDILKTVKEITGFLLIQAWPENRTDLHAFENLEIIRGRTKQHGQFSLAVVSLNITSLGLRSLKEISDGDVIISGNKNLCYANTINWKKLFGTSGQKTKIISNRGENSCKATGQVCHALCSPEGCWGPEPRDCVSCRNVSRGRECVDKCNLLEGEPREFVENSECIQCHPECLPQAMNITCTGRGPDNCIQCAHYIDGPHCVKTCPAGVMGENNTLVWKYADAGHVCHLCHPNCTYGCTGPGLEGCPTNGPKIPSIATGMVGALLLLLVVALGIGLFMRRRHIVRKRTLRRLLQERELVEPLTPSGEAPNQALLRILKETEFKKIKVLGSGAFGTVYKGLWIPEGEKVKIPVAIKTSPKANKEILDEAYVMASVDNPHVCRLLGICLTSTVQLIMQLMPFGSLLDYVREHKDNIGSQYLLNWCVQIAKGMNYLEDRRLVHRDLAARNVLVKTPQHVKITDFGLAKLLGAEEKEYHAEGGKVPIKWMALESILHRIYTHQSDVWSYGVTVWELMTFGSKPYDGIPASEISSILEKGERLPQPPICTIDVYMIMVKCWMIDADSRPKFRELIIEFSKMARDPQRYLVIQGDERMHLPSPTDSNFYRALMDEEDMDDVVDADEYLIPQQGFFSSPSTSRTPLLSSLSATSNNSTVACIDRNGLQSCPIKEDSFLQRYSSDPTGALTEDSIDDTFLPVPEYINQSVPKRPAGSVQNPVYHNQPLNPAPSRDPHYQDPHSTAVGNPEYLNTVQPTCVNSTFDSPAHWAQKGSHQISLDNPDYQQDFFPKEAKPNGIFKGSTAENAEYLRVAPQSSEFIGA

Row | IC50 (EGFR del19/T790M/C797S; [1]) | IC50 (EGFR del19/T790M/C797S; [2]) | IC50 (EGFR del19/C797S; [3]) | IC50 (EGFR del19/C797S; [4]) | IC50 (EGFR L858R/T790M/C797S; [5]) | IC50 (EGFR L858R/T790M/C797S; [6]) | IC50 (EGFR wildtype (WT); [7]) | IC50 (EGFR wildtype (WT); [8]) | IC50 (EGFR L858R/C797S; [9]) | IC50 (EGFR L858R/C797S; [10]) | IC50 (EGFR del19/T790M/C797S; [11]) | IC50 (EGFR del19/C797S; [12]) | IC50 (EGFR L858R/T790M/C797S; [13]) | IC50 (EGFR wildtype (WT); [14]) | IC50 (EGFR L858R/C797S; [15]) | IC50 (EGFR del19/T790M/C797S; IC50 del19/T790M/C797S, 100 μM ATP) | IC50 (EGFR del19/C797S; IC50 del19/C797S, 100 μM ATP) | IC50 (EGFR L858R/T790M/C797S; IC50 L858R/T790M/C797S, 100 μM ATP) | IC50 (EGFR wildtype (WT); IC50 WT, 100 μM ATP) | IC50 (EGFR L858R/C797S; IC50 L858R/C797S, 100 μM ATP) | Compound
1 | 0.3 nM | 0.3 nM | 0.7 nM | 0.5 nM | 0.5 nM | 0.1 nM | > 10000 nM | 10 nM | 3.5 nM | 0.7 nM |  |  |  |  |  |  |  |  |  |  | O=C1CC[C@]2(CC[C@H](Nc3cc(Nc4ccnc(-c5cnn(S(=O)(=O)C6CC6)c5)n4)ncc3-c3ccn(C(F)F)n3)CC2)N1 [Example 19, (5s,8s)-8-((2-((2-(1-(Cyclopropylsulfonyl)-1H-pyrazol-4-yl)pyrimidin-4-yl)amino)-5-(1-(difluoromethyl)-1H-pyrazol-3-yl)pyridin-4-yl)amino)-1-azaspiro[4.5]decan-2-one]
2 | 1.3 nM | 0.7 nM | 0.9 nM | 0.8 nM | 1 nM | 0.4 nM | > 10000 nM | 6.9 nM | 7.4 nM | 1.8 nM |  |  |  |  |  |  |  |  |  |  | O=S(=O)(C1CC1)n1cc(-c2nccc(Nc3cc(N[C@H]4CC[C@@H](NCC(F)F)CC4)c(-c4ccn(C(F)F)n4)cn3)n2)cn1 [Example 23, N^2-(2-(1-(Cyclopropylsulfonyl)-1H-pyrazol-4-yl)pyrimidin-4-yl)-N^4-((1s,4s)-4-((2,2-difluoroethyl)amino)cyclohexyl)-5-(1-(difluoromethyl)-1H-pyrazol-3-yl)pyridine-2,4-diamine]
3 |  | 9.5 nM |  | 178 nM |  | 2.2 nM |  | 538 nM |  | 14.5 nM |  |  |  |  |  |  |  |  |  |  | CN(C)S(=O)(=O)n1ccc(-c2nccc(Nc3cc(N[C@H]4CC[C@@](C)(O)CC4)c(-c4ccn(C(F)F)n4)cn3)n2)c1 [Example 109, 3-(4-((5-(1-(Difluoromethyl)-1H-pyrazol-3-yl)-4-(((1s,4s)-4-hydroxy-4-methylcyclohexyl)amino)pyridin-2-yl)amino)pyrimidin-2-yl)-N,N-dimethyl-1H-pyrrole-1-sulfonamide]
4 | 0.1 nM | 0.1 nM | 2.7 nM | 2.9 nM | 0.2 nM | 0.1 nM | > 10000 nM | 62.7 nM | 11.6 nM | 0.9 nM |  |  |  |  |  |  |  |  |  |  | C[C@]1(O)CC[C@@H](Nc2cc(Nc3ccnc(-c4cnn(CC(F)F)c4)n3)ncc2-c2ccn(C(F)F)n2)CC1 [Example 143, (1s,4s)-4-((2-((2-(1-(2,2-Difluoroethyl)-1H-pyrazol-4-yl)pyrimidin-4-yl)amino)-5-(1-(difluoromethyl)-1H-pyrazol-3-yl)pyridin-4-yl)amino)-1-methylcyclohexan-1-ol]
5 | 0.2 nM |  | 0.2 nM |  | 0.2 nM |  | 133 nM |  | 0.4 nM |  |  |  |  |  |  |  |  |  |  |  | CN(C)CCCn1ccc(-c2cnc(Nc3ccnc(-c4cnn(S(=O)(=O)C5CC5)c4)n3)cc2N[C@H]2CC[C@@](C)(O)CC2)n1 [Example 288, (1s,4s)-4-((2-((2-(1-(Cyclopropylsulfonyl)-1H-pyrazol-4-yl)pyrimidin-4-yl)amino)-5-(1-(3-(dimethylamino)propyl)-1H-pyrazol-3-yl)pyridin-4-yl)amino)-1-methylcyclohexan-1-ol]
6 | 1 nM | 0.5 nM |  | 0.5 nM | 1.4 nM | 0.5 nM | > 10000 nM | 7 nM | 13.5 nM | 0.7 nM |  |  |  |  |  |  |  |  |  |  | O=S(=O)(C1CC1)n1cc(-c2nccc(Nc3cc(NCC4CCC(O)C4)c(-c4ccn(C(F)F)n4)cn3)n2)cn1 (stereo not drawn) [Example 33, 3-(((2-((2-(1-(Cyclopropylsulfonyl)-1H-pyrazol-4-yl)pyrimidin-4-yl)amino)-5-(1-(difluoromethyl)-1H-pyrazol-3-yl)pyridin-4-yl)amino)methyl)cyclopentan-1-ol]
7 | 3.7 nM | 1 nM | 37.2 nM | 27.3 nM | 3.4 nM | 1.1 nM | 8960 nM | 137 nM | 91.5 nM | 7.1 nM |  |  |  |  |  |  |  |  |  |  | C[C@]1(O)CC[C@@H](Nc2cc(Nc3ccnc(-c4cnn(C5CC5)c4)n3)ncc2-c2ccn(C(F)F)n2)CC1 [Example 140, (1s,4s)-4-((2-((2-(1-Cyclopropyl-1H-pyrazol-4-yl)pyrimidin-4-yl)amino)-5-(1-(difluoromethyl)-1H-pyrazol-3-yl)pyridin-4-yl)amino)-1-methylcyclohexan-1-ol]
8 |  |  |  |  |  |  |  |  |  |  | 1.2 nM | 16.7 nM | 0.3 nM | 254 nM | 14.4 nM | 1.7 nM | 23.9 nM | 3.1 nM | > 10000 nM | 518 nM | C[C@]1(CO)C[C@@H](Nc2cc(Nc3ccnc(-c4cnn(S(=O)(=O)C5CC5)c4)n3)ncc2-c2ccn(C(F)F)n2)C1 [Example 378, ((1s,3s)-3-((2-((2-(1-(Cyclopropylsulfonyl)-1H-pyrazol-4-yl)pyrimidin-4-yl)amino)-5-(1-(difluoromethyl)-1H-pyrazol-3-yl)pyridin-4-yl)amino)-1-methylcyclobutyl)methanol]

Further lines, the compound ahead of its results:

Row | Compound | IC50 (EGFR del19/T790M/C797S; [1]) | IC50 (EGFR del19/T790M/C797S; [2]) | IC50 (EGFR del19/C797S; [3]) | IC50 (EGFR del19/C797S; [4]) | IC50 (EGFR L858R/T790M/C797S; [5]) | IC50 (EGFR L858R/T790M/C797S; [6]) | IC50 (EGFR wildtype (WT); [7]) | IC50 (EGFR wildtype (WT); [8]) | IC50 (EGFR L858R/C797S; [9]) | IC50 (EGFR L858R/C797S; [10]) | IC50 (EGFR del19/T790M/C797S; [11]) | IC50 (EGFR del19/C797S; [12]) | IC50 (EGFR L858R/T790M/C797S; [13]) | IC50 (EGFR wildtype (WT); [14]) | IC50 (EGFR L858R/C797S; [15]) | IC50 (EGFR del19/T790M/C797S; IC50 del19/T790M/C797S, 100 μM ATP) | IC50 (EGFR del19/C797S; IC50 del19/C797S, 100 μM ATP) | IC50 (EGFR L858R/T790M/C797S; IC50 L858R/T790M/C797S, 100 μM ATP) | IC50 (EGFR wildtype (WT); IC50 WT, 100 μM ATP) | IC50 (EGFR L858R/C797S; IC50 L858R/C797S, 100 μM ATP)
9 | O=S(=O)(C1CC1)n1cc(-c2nccc(Nc3cc(NC4CCC(NCCO)CC4)c(-c4csc(C(F)(F)F)n4)cn3)n2)cn1 (stereo not drawn) [Example 97, 2-((4-((2-((2-(1-(Cyclopropylsulfonyl)-1H-pyrazol-4-yl)pyrimidin-4-yl)amino)-5-(2-(trifluoromethyl)thiazol-4-yl)pyridin-4-yl)amino)cyclohexyl)amino)ethan-1-ol] | 0.7 nM |  | 18 nM |  | 3.2 nM |  | > 10000 nM |  | 160 nM |  |  |  |  |  |  |  |  |  |  | 
10 | COCn1ccc(-c2cnc(Nc3ccnc(-c4cnn(S(=O)(=O)C5CC5)c4)n3)cc2NC(C)C)n1 [Example 303, N^2-(2-(1-(Cyclopropylsulfonyl)-1H-pyrazol-4-yl)pyrimidin-4-yl)-N^4-isopropyl-5-(1-(methoxymethyl)-1H-pyrazol-3-yl)pyridine-2,4-diamine] |  | 0.6 nM |  | 2.2 nM |  | 0.3 nM |  | 1.7 nM |  | 0.2 nM |  |  |  |  |  |  |  |  |  | 
11 | O=S(=O)(C1CC1)n1cc(-c2nccc(Nc3cc(NC4CC5CC(O)C4C5)c(-c4ccn(C(F)F)n4)cn3)n2)cn1 (stereo not drawn) [Example 39, 6-((2-((2-(1-(Cyclopropylsulfonyl)-1H-pyrazol-4-yl)pyrimidin-4-yl)amino)-5-(1-(difluoromethyl)-1H-pyrazol-3-yl)pyridin-4-yl)amino)bicycle[2.2.1]heptan-2-ol] | 3.6 nM | 1.6 nM | 17.6 nM | 7.2 nM | 7.9 nM | 1.2 nM | > 10000 nM | 143 nM | 262 nM | 27.8 nM |  |  |  |  |  |  |  |  |  | 
12 | O=S(=O)(C1CC1)n1cc(-c2nccc(Nc3cc(NCC4CC5(CNC5)C4)c(-c4ccn(C(F)F)n4)cn3)n2)cn1 [Example 26, N^4-((2-Azaspiro[3.3]heptan-6-yl)methyl)-N^2-(2-(1-(cyclopropylsulfonyl)-1H-pyrazol-4-yl)pyrimidin-4-yl)-5-(1-(difluoromethyl)-1H-pyrazol-3-yl)pyridine-2,4-diamine] | 0.2 nM | 0.1 nM | 1.8 nM | 1.3 nM | 0.3 nM | 0.1 nM | 3740 nM | 6.7 nM | 26.5 nM | 2.3 nM |  |  |  |  |  |  |  |  |  | 
13 | CN(C)CCCn1ccc(-c2cnc(Nc3ccnc(-c4cnn(S(=O)(=O)C5CC5)c4)n3)cc2N[C@H]2CC[C@@H](CO)CC2)n1 [Example 296, ((1s,4s)-4-((2-((2-(1-(Cyclopropylsulfonyl)-1H-pyrazol-4-yl)pyrimidin-4-yl)amino)-5-(1-(3-(dimethylamino)propyl)-1H-pyrazol-3-yl)pyridin-4-yl)amino)cyclohexyl)methanol] | 0.2 nM | 0.1 nM | 0.3 nM | 0.1 nM | 0.1 nM | 0.1 nM | 48.8 nM | 0.3 nM | 0.5 nM | 0.1 nM |  |  |  |  |  |  |  |  |  | 
14 | Cn1nc(-c2nnc(Nc3ccnc(-c4cnn(S(=O)(=O)C5CC5)c4)n3)cc2N[C@H]2CC[C@@](C)(O)CC2)cc1C(F)(F)F [Example 373, (1s,4s)-4-((6-((2-(1-(Cyclopropylsulfonyl)-1H-pyrazol-4-yl)pyrimidin-4-yl)amino)-3-(1-methyl-5-(trifluoromethyl)-1H-pyrazol-3-yl)pyridazin-4-yl)amino)-1-methylcyclohexan-1-ol] |  |  |  |  |  |  |  |  |  |  | 0.5 nM | 663 nM | 3 nM | 714 nM | 226 nM |  |  |  |  | 
